Source: ChEMBL document CHEMBL5360581, “Discovery of a novel dual functional phenylpyrazole-styryl hybrid that induces apoptotic and autophagic cell death in bladder cancer cells” (Eur J Med Chem, 2023)
Active and inactive are the calls of the source. The calls are words filed in the database; no cut-off is given here.

Tested on: SW-620
Test: Antiproliferative activity against human SW620 cells assessed as reduction in cell viability at 20 uM measured for 72 hrs by MTT assay
Format: functional, cell-based
Conditions: not given
For Oc1ccc(Cl)cc1-c1cc(/C=C/c2ccc(Cl)s2)nn1-c1ccccc1, the Activity was “Active”. In the case of Oc1ccc(Cl)cc1-c1cc(/C=C/c2ccc(Cl)c(Cl)c2)nn1-c1ccccc1, the Activity is reported as “Active”. For Cc1ccc(/C=C/c2cc(-c3cc(Cl)ccc3O)n(-c3ccccc3)n2)s1, the Activity was “Active”. With Oc1ccccc1-c1cc(/C=C/c2ccccc2Cl)nn1-c1ccccc1 the Activity was “Active”.

Tested on: A549
Test: Antiproliferative activity against human A549 cells assessed as reduction in cell viability at 20 uM measured for 72 hrs by MTT assay
Format: functional, cell-based
Conditions: not given
For Oc1ccc(Cl)cc1-c1cc(/C=C/c2ccc(Cl)s2)nn1-c1ccccc1, the Activity was “Active”. With Oc1ccc(Cl)cc1-c1cc(/C=C/c2ccc(Cl)c(Cl)c2)nn1-c1ccccc1 the Activity was “Active”. With Cc1ccc(/C=C/c2cc(-c3cc(Cl)ccc3O)n(-c3ccccc3)n2)s1 the Activity was “Active”. For Oc1ccccc1-c1cc(/C=C/c2ccccc2Cl)nn1-c1ccccc1, the Activity was “Active”.

Tested on: EJ-28
Test: Antiproliferative activity against human EJ-28 cells assessed as reduction in cell viability at 20 uM measured for 72 hrs by MTT assay
Format: functional, cell-based
Conditions: not given
In the case of Oc1ccc(Cl)cc1-c1cc(/C=C/c2ccc(Cl)s2)nn1-c1ccccc1, the Activity is reported as “Active”. In the case of Oc1ccc(Cl)cc1-c1cc(/C=C/c2ccc(Cl)c(Cl)c2)nn1-c1ccccc1, the Activity is reported as “Active”. In the case of Cc1ccc(/C=C/c2cc(-c3cc(Cl)ccc3O)n(-c3ccccc3)n2)s1, the Activity is reported as “Active”. For Oc1ccccc1-c1cc(/C=C/c2ccccc2Cl)nn1-c1ccccc1, the Activity was “Active”.

Tested on: HT-1080
Test: Antiproliferative activity against human HT-1080 cells assessed as reduction in cell viability at 20 uM measured for 72 hrs by MTT assay
Format: functional, cell-based
Conditions: not given
With Oc1ccc(Cl)cc1-c1cc(/C=C/c2ccc(Cl)s2)nn1-c1ccccc1 the Activity was “Active”. In the case of Oc1ccc(Cl)cc1-c1cc(/C=C/c2ccc(Cl)c(Cl)c2)nn1-c1ccccc1, the Activity is reported as “Active”. With Cc1ccc(/C=C/c2cc(-c3cc(Cl)ccc3O)n(-c3ccccc3)n2)s1 the Activity was “Active”. With Oc1ccccc1-c1cc(/C=C/c2ccccc2Cl)nn1-c1ccccc1 the Activity was “Active”.

Tested on: MCF7
Test: Antiproliferative activity against human MCF7 cells assessed as reduction in cell viability at 20 uM measured for 72 hrs by MTT assay
Format: functional, cell-based
Conditions: not given
For Oc1ccc(Cl)cc1-c1cc(/C=C/c2ccc(Cl)s2)nn1-c1ccccc1, the Activity was “Active”. In the case of Oc1ccc(Cl)cc1-c1cc(/C=C/c2ccc(Cl)c(Cl)c2)nn1-c1ccccc1, the Activity is reported as “Active”. In the case of Cc1ccc(/C=C/c2cc(-c3cc(Cl)ccc3O)n(-c3ccccc3)n2)s1, the Activity is reported as “Active”. In the case of Oc1ccccc1-c1cc(/C=C/c2ccccc2Cl)nn1-c1ccccc1, the Activity is reported as “Active”.

Tested on: SW-620
Test: Cytotoxicity against human SW620 cells assessed inhibition of cell growth incubated for 72 hrs by MTT assay
Format: functional, cell-based
Conditions: SW-620, 72 h
For Oc1ccc(Cl)cc1-c1cc(/C=C/c2ccc(Cl)s2)nn1-c1ccccc1, the IC50 was 10.4 µM. In the case of Oc1ccc(Cl)cc1-c1cc(/C=C/c2ccc(Cl)c(Cl)c2)nn1-c1ccccc1, the IC50 is reported as 19.2 µM. Work on Cc1ccc(/C=C/c2cc(-c3cc(Cl)ccc3O)n(-c3ccccc3)n2)s1 yielded an IC50 of 23 µM. Oc1ccccc1-c1cc(/C=C/c2ccccc2Cl)nn1-c1ccccc1 showed an IC50 of 15.7 µM.

Tested on: A549
Test: Cytotoxicity against human A549 cells assessed inhibition of cell growth incubated for 72 hrs by MTT assay
Format: functional, cell-based
Conditions: A549, 72 h
For Oc1ccc(Cl)cc1-c1cc(/C=C/c2ccc(Cl)s2)nn1-c1ccccc1, the IC50 was 13.3 µM. Compound Oc1ccc(Cl)cc1-c1cc(/C=C/c2ccc(Cl)c(Cl)c2)nn1-c1ccccc1 has an IC50 of 20.2 µM. Work on Cc1ccc(/C=C/c2cc(-c3cc(Cl)ccc3O)n(-c3ccccc3)n2)s1 yielded an IC50 of 22.7 µM. Oc1ccccc1-c1cc(/C=C/c2ccccc2Cl)nn1-c1ccccc1 showed an IC50 of 22.4 µM.

Tested on: EJ-28
Test: Cytotoxicity against human EJ-28 cells assessed inhibition of cell growth incubated for 72 hrs by MTT assay
Format: functional, cell-based
Conditions: EJ-28, 72 h
Work on Oc1ccc(Cl)cc1-c1cc(/C=C/c2ccc(Cl)s2)nn1-c1ccccc1 yielded an IC50 of 10.1 µM. Oc1ccc(Cl)cc1-c1cc(/C=C/c2ccc(Cl)c(Cl)c2)nn1-c1ccccc1 showed an IC50 of 4.4 µM. In the case of Cc1ccc(/C=C/c2cc(-c3cc(Cl)ccc3O)n(-c3ccccc3)n2)s1, the IC50 is reported as 8.6 µM. For Oc1ccccc1-c1cc(/C=C/c2ccccc2Cl)nn1-c1ccccc1, the IC50 was 11.7 µM.

Tested on: HT-1080
Test: Cytotoxicity against human HT-1080 cells assessed inhibition of cell growth incubated for 72 hrs by MTT assay
Format: functional, cell-based
Conditions: HT-1080, 72 h
For Oc1ccc(Cl)cc1-c1cc(/C=C/c2ccc(Cl)s2)nn1-c1ccccc1, the IC50 was 13.5 µM. Oc1ccc(Cl)cc1-c1cc(/C=C/c2ccc(Cl)c(Cl)c2)nn1-c1ccccc1 showed an IC50 of 17.8 µM. With Cc1ccc(/C=C/c2cc(-c3cc(Cl)ccc3O)n(-c3ccccc3)n2)s1 the IC50 was 21.7 µM. Oc1ccccc1-c1cc(/C=C/c2ccccc2Cl)nn1-c1ccccc1 showed an IC50 of 16.9 µM.

Tested on: MCF7
Test: Cytotoxicity against human MCF7 cells assessed inhibition of cell growth incubated for 72 hrs by MTT assay
Format: functional, cell-based
Conditions: MCF7, 72 h
Oc1ccc(Cl)cc1-c1cc(/C=C/c2ccc(Cl)s2)nn1-c1ccccc1 showed an IC50 of 8.7 µM. Work on Oc1ccc(Cl)cc1-c1cc(/C=C/c2ccc(Cl)c(Cl)c2)nn1-c1ccccc1 yielded an IC50 of 15 µM. With Cc1ccc(/C=C/c2cc(-c3cc(Cl)ccc3O)n(-c3ccccc3)n2)s1 the IC50 was 11.1 µM. Compound Oc1ccccc1-c1cc(/C=C/c2ccccc2Cl)nn1-c1ccccc1 has an IC50 of 15.3 µM.

Tested on: not listed separately
Test: Cytotoxicity against human NHDF cells assessed inhibition of cell growth incubated for 72 hrs by MTT assay
Format: toxicity, cell-based
Conditions: not given
Compound Oc1ccc(Cl)cc1-c1cc(/C=C/c2ccc(Cl)s2)nn1-c1ccccc1 has an IC50 at 72 h of 19.2 µM. Compound Oc1ccc(Cl)cc1-c1cc(/C=C/c2ccc(Cl)c(Cl)c2)nn1-c1ccccc1 has an IC50 at 72 h of 40.2 µM. Work on Cc1ccc(/C=C/c2cc(-c3cc(Cl)ccc3O)n(-c3ccccc3)n2)s1 yielded an IC50 at 72 h of 39.4 µM. Oc1ccccc1-c1cc(/C=C/c2ccccc2Cl)nn1-c1ccccc1 gave an IC50 at 72 h greater than 50 µM.

Tested on: not listed separately
Test: Selectivity index, ratio of IC50 for cytotoxicity against human NHDF cells to IC50 for cytotoxicity against human SW620 cells
Conditions: not given
For Oc1ccc(Cl)cc1-c1cc(/C=C/c2ccc(Cl)s2)nn1-c1ccccc1, the “Ratio IC50” value was 1.4. In the case of Oc1ccc(Cl)cc1-c1cc(/C=C/c2ccc(Cl)c(Cl)c2)nn1-c1ccccc1, the “Ratio IC50” value is reported as 2. In the case of Cc1ccc(/C=C/c2cc(-c3cc(Cl)ccc3O)n(-c3ccccc3)n2)s1, the “Ratio IC50” value is reported as 1.7. With Oc1ccccc1-c1cc(/C=C/c2ccccc2Cl)nn1-c1ccccc1 the “Ratio IC50” value was greater than 2.2.

Tested on: not listed separately
Test: Selectivity index, ratio of IC50 for cytotoxicity against human NHDF cells to IC50 for cytotoxicity against human A549 cells
Format: toxicity, cell-based
Conditions: NHDF cells and A549 cells, read-out: Ratio IC50
Oc1ccc(Cl)cc1-c1cc(/C=C/c2ccc(Cl)s2)nn1-c1ccccc1 showed a selectivity ratio of 1.4. With Oc1ccc(Cl)cc1-c1cc(/C=C/c2ccc(Cl)c(Cl)c2)nn1-c1ccccc1 the selectivity ratio was 2. Compound Cc1ccc(/C=C/c2cc(-c3cc(Cl)ccc3O)n(-c3ccccc3)n2)s1 has a selectivity ratio of 1.7. Oc1ccccc1-c1cc(/C=C/c2ccccc2Cl)nn1-c1ccccc1 showed a selectivity ratio greater than 2.2.

Tested on: not listed separately
Test: Selectivity index, ratio of IC50 for cytotoxicity against human NHDF cells to IC50 for cytotoxicity against human EJ-28 cells
Conditions: not given
For Oc1ccc(Cl)cc1-c1cc(/C=C/c2ccc(Cl)s2)nn1-c1ccccc1, the “Ratio IC50” value was 1.4. For Oc1ccc(Cl)cc1-c1cc(/C=C/c2ccc(Cl)c(Cl)c2)nn1-c1ccccc1, the “Ratio IC50” value was 2. In the case of Cc1ccc(/C=C/c2cc(-c3cc(Cl)ccc3O)n(-c3ccccc3)n2)s1, the “Ratio IC50” value is reported as 1.7. In the case of Oc1ccccc1-c1cc(/C=C/c2ccccc2Cl)nn1-c1ccccc1, the “Ratio IC50” value is reported as greater than 2.2.

Tested on: not listed separately
Test: Selectivity index, ratio of IC50 for cytotoxicity against human NHDF cells to IC50 for cytotoxicity against human HT-1080 cells
Conditions: not given
With Oc1ccc(Cl)cc1-c1cc(/C=C/c2ccc(Cl)s2)nn1-c1ccccc1 the “Ratio IC50” value was 1.4. For Oc1ccc(Cl)cc1-c1cc(/C=C/c2ccc(Cl)c(Cl)c2)nn1-c1ccccc1, the “Ratio IC50” value was 2. For Cc1ccc(/C=C/c2cc(-c3cc(Cl)ccc3O)n(-c3ccccc3)n2)s1, the “Ratio IC50” value was 1.7. With Oc1ccccc1-c1cc(/C=C/c2ccccc2Cl)nn1-c1ccccc1 the “Ratio IC50” value was greater than 2.2.

Tested on: not listed separately
Test: Selectivity index, ratio of IC50 for cytotoxicity against human NHDF cells to IC50 for cytotoxicity against human MCF7 cells
Format: toxicity, cell-based
Conditions: NHDF cells and MCF7 cells, read-out: Ratio IC50
Oc1ccc(Cl)cc1-c1cc(/C=C/c2ccc(Cl)s2)nn1-c1ccccc1 gave a selectivity ratio of 1.4. Oc1ccc(Cl)cc1-c1cc(/C=C/c2ccc(Cl)c(Cl)c2)nn1-c1ccccc1 showed a selectivity ratio of 2. Cc1ccc(/C=C/c2cc(-c3cc(Cl)ccc3O)n(-c3ccccc3)n2)s1 gave a selectivity ratio of 1.7. For Oc1ccccc1-c1cc(/C=C/c2ccccc2Cl)nn1-c1ccccc1, the selectivity ratio was greater than 2.2.
